Data from US20070082018A1, “Stabilized antimicrobial compositions and related methods of preparation” (priority 2005, published 2007).

Columns and labels:
[1] = Effect of salts on stability of surfactant solutions, visual observation of precipitation; assay type: physicochemical; settings: aqueous solutions, 5 wt % LAE
Protocol: Several experiments were conducted to examine the influence of salts on the stability of solutions containing Mirenat. The pH was not controlled here, as the buffer could mask the real behavior of the system. Still, it remained almost unchanged after the addition of salts. The added counterion (anion) contributed by the added electrolyte is assumed to be the same species as that contributed by the cationic surfactant, i.e. chloride ions Cl^−. Therefore, chloride salts, i.e. sodium chloride NaCl and calcium chloride CaCl2, were used. […] Precipitation occurred slowly, especially with low salt concentration where it could take up to 5 days. […] Almost every time precipitation took place, little or even no turbidity was noticeable. The results provided in Table 1 reflect qualitative visual observation.
Materials and Solution Preparation. Concentrated Mirenat®-N solution (25% lauric arginate, 75% PEG) was obtained from A&B Ingredients and used without further purification. Polyoxyethylene 20 sorbitan monolaureate (Tween 20), solvents (HCl, NaOH, purity >99%) and NaCl (>99%) was obtained from Sigma Chemical (St. Louis, Mo.). All solutions were prepared using doubles distilled and deionized water. Micellar solutions were prepared by gently mixing surfactants (Tween and LAE) at appropriate concentrations with double distilled water. As needed, pH was adjusted using HCl and NaOH.

[2] = Solution turbidity (absorbance at 600 nm) and precipitation versus pH on NaOH titration; assay type: physicochemical; settings: aqueous solutions, 5 wt % LAE, pH 2-13
Protocol: The solution pH was increased stepwise by adding 0.5N NaOH and was recorded 2 min following each addition. It was plotted against the total amount of OH added for each of the solutions. Three minutes following each addition, a sub-sample was delivered via pipette into a cuvette for light absorption determination. […] However, this drastic change doesn't occur at the same hydroxide ions concentration for each of the different T20 concentrations. Indeed, it progressively shifts to the right of the graphic. Notice that beginning pH values are very close to each other for each solution. To the contrary, final pH values corresponding to the addition of 11 mmol OH^− are not the same and tend to decrease while the amount of T20 becomes higher. […]
pH would be expected to have an effect on precipitation as it affects the concentration of background ions H^+ and OH^− in the medium. […] It has been assumed that the initial rate of change in absorbance in the dispersions is a qualitative measure of the precipitation rate. […]
Solution Turbidity. Absorbance of solutions adjusted to pH or containing salts was measured by spectroscopy at a wavelength of 600 nm using a UV-Visible spectrophotometer (Spectronic 21D, Milton Roy, Rochester, N.Y.). […] The change in the of absorbance of solutions was used as an indirect measure to formation of larger particles an/or aggregates.

[3] = tested on: Escherichia coli; settings: cited from earlier work
[4] = tested on: Listeria monocytogenes; settings: cited from earlier work
[5] = Critical micelle concentration from surface tension (drop shape tensiometry); assay type: physicochemical; settings: for Critical micelle concentration (CMC): pure systems in water
Protocol: The critical micelle concentration of the pure systems was determined by plotting surface tension values against the logarithm of the total surfactant concentration. In order to determine the values of the critical micelle concentration, two linear fits were used. The first line was fitted to interval of concentration characterized by linear decrease of the surface tension and the second one to the region of concentration with the nearly constant surface tension. The point in which the fitted lines cross corresponds to the value of the critical micelle concentration (CMC). Here, the CMC is reached at a Mirenat concentration 0.25% v/v. This corresponds to 1.65 mmol.L^−1 of lauric arginate, 4 times lower than the literature value. Accordingly, all experiments will be carried out at a concentration largely exceeding the found value: 5% v/v.
Measurement of Surface Tension. A drop shape analysis tensiometer (Model DSA-G10 MK2, Kruss USA, Charlotte, N.C.) was used to determine surface tension of surfactant solutions (20.0±0.5° C.). The tensiometer determines the shape of pendant drops or bubbles through numerical analysis of the entire drop shape. The calculation of the interfacial tension from the drop shape is based on the Young-Laplace equation of capillarity and a detailed description can be found elsewhere (Dukhin, Kretschmer et al. 1995). Surface tension measurements were carried out at 20.0±0.5 ° C. To ensure accurate temperature control, an air bubble was formed at the inverted tip of a syringe that was submerged in the surfactant solution contained in a thermostatted cuvette. The syringe/cuvette system was positioned on an optical bench between the light source and a high-speed CCD camera. […] Samples were assumed to be equilibrated (the equilibrium dynamic interfacial tension DITeq) when measured values of DITeq remained unchanged for 30 minutes. […] Solution were equilibrated to 20° C. in a waterbath and density measured using a digital density meter (DMA 35N, Anton Paar GmbH, Graz, Austria). […]

Row | Molecule | CaCl2 concentration at which precipitates form [1] | NaCl concentration at which precipitates form [1] | pH at which precipitates form [2] | Minimum inhibitory concentration [3] | Minimum inhibitory concentration [4] | Critical micelle concentration (CMC) as lauric arginate ([5]; corresponds to Mirenat 0.25% v/v) | Critical micelle concentration (CMC) [5]
1 | CCCCCCCCCCCC(=O)N[C@@H](CCCNC(=N)N)C(=O)OCC.Cl [LAE, ethyl-N^alpha-dodecanoyl-L-arginate hydrochloride] | > 15 g/L | > 10 g/L | > 4.1 | less than 10 ppm | less than 10 ppm | 1.65 mmol/L | 0.25 % v/v
2 | Polyoxyethylene 20 sorbitan monolaureate [T20] | – | – | – | – | – | – | 0.3 % v/v
